Here are results for 22 compounds from the Kinase Knowledgebase extract (Sharma et al. 2016).

The target in assay [1] is EGFR (murine) (UniProt P00533). As to conditions: for IC50: her 14.
Assay [2] has as its target EGFR (murine) (UniProt P00533). To be noted: her 14.
In the next assay the target is EGFR (UniProt P00533).
EGFR, sequence (P00533 whole entry, looked up): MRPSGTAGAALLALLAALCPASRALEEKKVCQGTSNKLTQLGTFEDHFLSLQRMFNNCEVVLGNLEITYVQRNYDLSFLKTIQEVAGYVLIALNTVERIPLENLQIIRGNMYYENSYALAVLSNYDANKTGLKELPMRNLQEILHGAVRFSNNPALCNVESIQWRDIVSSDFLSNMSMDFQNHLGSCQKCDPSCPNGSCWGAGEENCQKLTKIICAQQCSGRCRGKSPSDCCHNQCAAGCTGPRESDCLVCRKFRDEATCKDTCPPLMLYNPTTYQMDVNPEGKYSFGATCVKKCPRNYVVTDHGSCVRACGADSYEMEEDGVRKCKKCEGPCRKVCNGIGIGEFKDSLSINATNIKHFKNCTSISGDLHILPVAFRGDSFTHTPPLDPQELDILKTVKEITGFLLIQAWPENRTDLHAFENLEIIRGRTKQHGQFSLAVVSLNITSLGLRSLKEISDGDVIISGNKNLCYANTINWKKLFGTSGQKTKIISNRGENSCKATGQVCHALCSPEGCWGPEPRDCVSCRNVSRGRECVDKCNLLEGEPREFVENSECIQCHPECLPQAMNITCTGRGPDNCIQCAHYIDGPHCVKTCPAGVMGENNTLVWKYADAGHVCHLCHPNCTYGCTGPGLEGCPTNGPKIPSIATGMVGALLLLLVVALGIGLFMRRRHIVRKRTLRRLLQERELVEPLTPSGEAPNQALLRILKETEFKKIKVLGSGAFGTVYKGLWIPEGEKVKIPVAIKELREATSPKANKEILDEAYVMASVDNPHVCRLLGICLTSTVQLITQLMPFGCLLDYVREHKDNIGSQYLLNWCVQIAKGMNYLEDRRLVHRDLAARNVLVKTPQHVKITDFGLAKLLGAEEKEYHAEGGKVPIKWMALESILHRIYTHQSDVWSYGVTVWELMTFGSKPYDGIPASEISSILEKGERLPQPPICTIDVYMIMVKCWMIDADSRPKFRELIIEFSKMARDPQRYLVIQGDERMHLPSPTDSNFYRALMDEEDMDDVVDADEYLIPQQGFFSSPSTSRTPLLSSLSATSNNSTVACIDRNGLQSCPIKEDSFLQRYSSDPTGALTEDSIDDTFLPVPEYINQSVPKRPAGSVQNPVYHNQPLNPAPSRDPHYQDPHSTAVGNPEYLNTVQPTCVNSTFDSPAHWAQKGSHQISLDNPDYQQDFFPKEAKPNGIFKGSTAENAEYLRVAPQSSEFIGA

EGFR (murine), sequence (P00533 whole entry, looked up): as above

As to `CC(NC(=O)/C(C#N)=C/c1ccc(O)c(O)c1)c1ccccc1` (stereo not given), the IC50 with EGFR (murine) [1] amounted to 10 µM; with EGFR (murine) [2], 3.5 µM. This compound returned an inhibition with EGFR (murine) [1] (her 14, dose or concentration not given here) of 0.88%.

`N#CC(C#N)=Cc1ccc2[nH]ccc2c1`: the IC50 with EGFR (murine) [2] is > 100 µM.

As to `N#CC(C#N)=C1C(=O)Nc2ccc([N+](=O)[O-])cc21`, in the assay with EGFR (murine) [2], the IC50 stood at 20 µM. This lies in the double-digit micromolar range.

With `N#CC(C#N)=C1C(=O)Nc2cc(O)c(O)cc21`, the concentration for half-maximal inhibition (IC50) with EGFR (murine) [2] was > 16 µM.

Consider `N#C/C(=C\c1ccc(O)c(O)c1)C(=O)Nc1ccccc1Cl`, for which the values for the IC50 with EGFR (murine) [1] and with EGFR (murine) [2] were 12 µM and 35 µM, respectively.

As for `N#C/C(=C\c1ccc(O)c(O)c1)C(=O)N1CCc2ccccc21`, the IC50 in the assay with EGFR (murine) [1] was 100 µM; with EGFR (murine) [2], 25 µM.

With `N#C/C(=C\c1ccc(O)c(O)c1)C(=O)c1ccccc1`, the figures for the IC50 in the assay with EGFR (murine) [1] and with EGFR (murine) [2] were 120 µM and 15 µM, respectively.

For the compound `N#CC(C#N)=C1CCc2cc(O)c(O)cc21`, the figures for the IC50 in the assay with EGFR (murine) [1] and with EGFR (murine) [2] were > 150 µM and 30 µM, respectively.

For `N#C/C(=C\c1ccc(O)c(O)c1)C(=O)NCCCCc1ccccc1`, the figures for the IC50 with EGFR (murine) [1] and in the assay with EGFR (murine) [2] were 10 µM and 3 µM, respectively.

`N#CC(C#N)=Cc1cccc(O)c1` returned an IC50 against EGFR of 375 µM.

For `COc1cc2c(cc1O)NC(=O)C2=C(C#N)C#N`, the IC50 in the assay with EGFR (murine) [2] was ≥ 120 µM.

With `N#C/C(=C\c1ccc(O)c(O)c1)C(=O)c1ccc([N+](=O)[O-])cc1`, the IC50 was < 20 µM with EGFR (murine) [1] and 20 µM in the assay with EGFR (murine) [2].

With `N#C/C(=C\c1ccc(O)c(O)c1)C(=O)NCCCc1ccccc1`, the results for the IC50 with EGFR (murine) [1] and with EGFR (murine) [2] were 25 µM and 2.5 µM, respectively.

On EGFR, `COc1cc(C=C(C#N)C#N)ccc1O` came in with an IC50 of 200 µM.

In the case of `N#C/C(=C\c1ccc(O)c(O)c1)C(N)=O`, the IC50 against EGFR is 10 µM; in the assay with EGFR (murine) [1] it was 60 µM; with EGFR (murine) [2] it was 15 µM.

At EGFR, `N#CC(C#N)=Cc1cc[n+]([O-])cc1` registered an IC50 of 1300 µM.

In the case of `Cc1ccc(C(=O)/C(C#N)=C/c2ccc(O)c(O)c2)cc1`, the figures for the IC50 in the assay with EGFR (murine) [1] and with EGFR (murine) [2] were 100 µM and 7 µM, respectively.

As for `N#C/C(=C\c1ccc(O)c(O)c1)C(=O)c1ccc(F)cc1`, the values for the IC50 with EGFR (murine) [1] and with EGFR (murine) [2] were 80 µM and 20 µM, respectively.

Turning to `N#C/C(=C\c1ccc(O)c(O)c1)C(=O)NC1CCCCC1`, the 50% inhibitory concentration (IC50) with EGFR (murine) [1] was 50 µM.

`N#C/C(=C/c1ccc(O)c(O)c1)C(=O)NCc1ccccc1`: the IC50 with EGFR (murine) [2] is 3.5 µM. In other words, the single-digit micromolar range.

`Cc1cccc(C)c1NC(=O)/C(C#N)=C/c1ccc(O)c(O)c1`: the IC50 in the assay with EGFR (murine) [1] is > 20 µM.

As to `N#C/C(=C/c1ccc(O)c(O)c1)C(=O)NC1CCCCC1`, the IC50 in the assay with EGFR (murine) [2] came out at 15 µM.
